Results reported in patent US4959368A, “Therapeutic agent for neurological diseases” (Mitsui Petrochemical Industries Ltd., priority 1986, dated 1990).

How the values were obtained:
[1] = tested on: human neuroblastoma cell line GOTO; assay: Activity on neuroblastoma cell line GOTO (cell number, number and length of neurites); assay type: cell-based; conditions: for Number of cells (mean ± S.E.): control 12.30 ± 1.48
Summary of the method: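 GOTO cells were cultured 1–2 days at 37 °C, 5% CO2, then switched to serum-free RPMI/MEM (1:1) with compounds in PBS at various concentrations for 24 h. Living cells were counted by erythrosine exclusion (3–6 dishes); neurite number and length per cell were measured from photographs.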

[2] = tested on: human neuroblastoma cell line GOTO; assay: Activity on cell line GOTO (simple method); assay type: cell-based; conditions: Table 2 GOTO Run No. 1; 10 μg/ml; control 8.4
Procedure: The biological activities in vitro of the compounds of formula (I) on cells of the nervous system were tested. The cells tested were human neuroblastoma cell line GOTO [see Sekiguchi, M., Oota, T., Sakakibara, K., Inui, N. & Fujii, G., Japan. J. Exp. Med., 49, 67-83 (1979)], and neuroblastoma cell line NB-1 [see Miyake, S., Shimo, Y., Kitamura, T., Nojyo, Y., Nakamura, T., Imkashuku, S. and Abe, T., The Autonomic Nervous System, 10, 115-120 (1973)], and mouse neuroblastoma cell line neuro-2a (Dainippon Pharmaceutical Co., Ltd.) which have been established as the cells of the nervous system. The above neuve cells were grown in an incubator at 37° C. in the presence of 5% carbon dioxide gas exponentially, and then cultivated for a certain period of time together with the compounds of formula (I).
A culture medium [composed of 45% of RPMI 1640 medium, 45% modified Eagle's medium (MEM) and 10% of fetal calf serum (FCS) and containing penicillin G sodium (100 units/ml) and streptomycin sulfate (100 microgram/ml)] containing neurobalstoma cell line GOTO in the logarithmic growth period was poured in an amount of 2 ml each into polystyrene dishes (35 mm; made by Corning Co.) so that the cell concentration was 2 to 6×10^4 cells per dish, and the cells were cultured for 1 to 2 days in a carbon dioxide gas incubator containing 5% of carbon dioxide gas in air at 37° C. Then, the culture fluid was removed, and 2 ml of a fresh serum-free culture fluid (consisting of 50% of RPMI medium and 50% of MEM medium and containing penicillin G sodium and streptomycin sulfate in the same amounts as above) was added. At the same time, a presterilized PBS solution (phosphate buffered saline) of each of the test compounds in various concentrations was added to each of the dishes. After culturing for 24 hours, the number of living cells was counted. Furthermore, the culture was photographed, and from the photos, the number and length of neurites per cell were measured. The numer of living cells was counted for 3 to 6 dishes by resistance to staining with erythrosine dye. The number and length of the neurites were measured with regard to 6 photos (more than 200 cells per photo).
As a simple method of evaluation, the number of cells have neurites with a length equal to, or larger than, the long diameter of the cell was divided by the total number of cells.

[3] = tested on: mouse neuroblastoma cell line neuro-2a; assay: Activity on neuro-2a, cells with outgrown neurites; assay type: cell-based
Summary of the method: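 Mouse neuro-2a cells in DMEM with FCS exposed to compounds for 24 h (up to 6 concentrations, triplicate runs), glutaraldehyde-fixed and methylene blue-stained. Proportion of cells bearing a neurite at least twice the cell's long diameter counted microscopically over ≥200 cells.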

[4] = tested on: mice; assay: Acute toxicity, mouse; assay type: in vivo; conditions: 24 hours; for Number of dead animals/number of test animals: Table 7, 1000 mg/kg p.o.; for Presumed LD50: Table 7, p.o.
Procedure: The acute toxicity of the compounds of the invention was examined by the following method.
Male ddy-strain 5-week old mice and male Wistar-strain 8 week old rats, five per group, were used as experimental animals. Each of the compounds was dissolved in saline and administered perorally, and the toxicity of the compound was assessed 24 hours after the administration.

[5] = Table 1 Run No. 2, 1 μg/ml, control 2.06 ± 0.60
[6] = Table 1 Run No. 2, 1 μg/ml, control 55.00 ± 37.26
[7] = Table 1 Run No. 2, 10 μg/ml, control 2.06 ± 0.60
[8] = Table 1 Run No. 2, 10 μg/ml, control 55.00 ± 37.26

`CN1C(=O)Cc2cnc(N3CCNCC3)nc21` [Compound 408] was tested, and the “Number of neurites/cell (mean ± S.D.)” value [1, 5] was 2.11 ± 0.65 neurites/cell, the “Number of cells (mean ± S.E.)” value ([1]; Table 1 Run No. 2, 1 μg/ml) was 17.52 ± 2.57 × 10^4 /dish and the “Length of neurites (mean ± S.D.)” value [1, 6] was 66.09 ± 36.49 μm/cell. The “Number of neurites/cell (mean ± S.D.)” value [1, 7] was 2.17 ± 0.66 neurites/cell, the “Number of cells (mean ± S.E.)” value ([1]; Table 1 Run No. 2, 10 μg/ml) was 13.07 ± 0.80 × 10^4 /dish and the “Length of neurites (mean ± S.D.)” value [1, 8] was 69.33 ± 40.68 μm/cell. For the same compound, the “Average of the proportions” value [2] was 25.33%, the “Cells having neurites with a length at least twice the long diameter of cell/total number of cells” value ([3]; Table 3 Run No. 3, 0.01 mM, control 3.9 ± 0.3) was 7.9 ± 1.8% and the “Cells having neurites with a length at least twice the long diameter of cell/total number of cells” value ([3]; Table 3 Run No. 3, 0.03 mM, control 3.9 ± 0.3) was 13.0 ± 1.2%. The “Cells having neurites with a length at least twice the long diameter of cell/total number of cells” value ([3]; Table 3 Run No. 3, 0.05 mM, control 3.9 ± 0.3) was 23.0 ± 1.7%, the “Cells having neurites with a length at least twice the long diameter of cell/total number of cells” value ([3]; Table 3 Run No. 3, 0.1 mM, control 3.9 ± 0.3) was 51.2 ± 1.5% and the “Cells having neurites with a length at least twice the long diameter of cell/total number of cells” value ([3]; Table 3 Run No. 4, 0.05 mM, control 3.1 ± 0.2) was 16.8 ± 2.7%. For the same compound, the “Cells having neurites with a length at least twice the long diameter of cell/total number of cells” value ([3]; Table 3 Run No. 4, 0.1 mM, control 3.1 ± 0.2) was 33.5 ± 2.7%, the “Cells having neurites with a length at least twice the long diameter of cell/total number of cells” value ([3]; Table 3 Run No. 4, 0.2 mM, control 3.1 ± 0.2) was 44.6 ± 3.1% and the “Cells having neurites with a length at least twice the long diameter of cell/total number of cells” value ([3]; Table 3 Run No. 7, 0.01 mM, control 2.5 ± 0.7) was 6.2 ± 0.9%. For the same compound, the “Cells having neurites with a length at least twice the long diameter of cell/total number of cells” value ([3]; Table 3 Run No. 7, 0.1 mM, control 2.5 ± 0.7) was 25.0 ± 2.7%, the “Cells having neurites with a length at least twice the long diameter of cell/total number of cells” value ([3]; Table 3 Run No. 7, 0.2 mM, control 2.5 ± 0.7) was 44.5 ± 2.9% and the “Cells having neurites with a length at least twice the long diameter of cell/total number of cells” value ([3]; Table 3 first Run No. 5, 0.05 mM, no control given) was 12.8 ± 1.8%. The “Cells having neurites with a length at least twice the long diameter of cell/total number of cells” value ([3]; Table 3 first Run No. 5, 0.1 mM, no control given) was 23.5 ± 2.5%, the “Number of dead animals/number of test animals” value ([4]; 1000 mg/kg) was 0/5 and the “Presumed LD50” value [4] was over 1000 mg/kg p.o.
With `CN1Cc2nc(N3CCNCC3)ncc2C1=O` [Compound 604] the “Length of neurites (mean ± S.D.)” value ([1]; Table 1, Run No. 6 by footnote, 1 μg/ml, control 42.48 ± 19.64, all *P <0.01) was 58.88 ± 22.72 μm/cell, the “Number of neurites/cell (mean ± S.D.)” value ([1]; Table 1, second control group (Run No. 6 by footnote), 1 μg/ml, control 1.79 ± 0.80) was 2.23 ± 0.81 neurites/cell and the “Number of neurites/cell (mean ± S.D.)” value [1, 5] was 2.29 ± 0.77 neurites/cell. The “Number of cells (mean ± S.E.)” value ([1]; Table 1 Run No. 2, 1 μg/ml) was 14.41 ± 2.98 × 10^4 /dish, the “Length of neurites (mean ± S.D.)” value [1, 6] was 76.30 ± 51.49 μm/cell and the “Number of neurites/cell (mean ± S.D.)” value [1, 7] was 2.27 ± 0.62 neurites/cell. The “Number of cells (mean ± S.E.)” value ([1]; Table 1 Run No. 2, 10 μg/ml) was 11.85 ± 1.36 × 10^4 /dish, the “Length of neurites (mean ± S.D.)” value [1, 8] was 72.06 ± 42.79 μm/cell and the “Average of the proportions” value [2] was 21.30%. For the same compound, the “Cells having neurites with a length at least twice the long diameter of cell/total number of cells” value ([3]; Table 3 Run No. 3, 0.3 mM, control 3.9 ± 0.3) was 8.6 ± 0.9%, the “Cells having neurites with a length at least twice the long diameter of cell/total number of cells” value ([3]; Table 3 Run No. 3, 1 mM, control 3.9 ± 0.3) was 10.7 ± 1.3% and the “Number of dead animals/number of test animals” value [4] was 0/5. For the same compound, the “Presumed LD50” value ([4]; 1440 min) was over 1000 mg/kg p.o.
